“And” between values parts separate entries of the source, which are not always exact repeats. Equal values may be shown once.
Assays:
S. aureus ATCC25923 = experiment: MIC by microdilution, S. aureus ATCC25923; assay type: cell-based, Staphylococcus aureus; details: S. aureus ATCC25923 (MecA negative, wild-type), Mueller-Hinton broth, in duplicate
Method in brief: (§1)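 Broth microdilution per CLSI document M07-A10, Mueller-Hinton medium, each MIC run in duplicate. Strains include E. coli ATCC25922 (wild-type), S. epidermidis ATCC35984 (MecA positive) and S. aureus ATCC700699 (MecA positive, glycopeptide resistant), within a mixed panel of susceptible and resistant Gram-positive/Gram-negative bacteria.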

S. aureus ATCC29213 = experiment: MIC by microdilution, S. aureus ATCC29213; assay type: cell-based, Staphylococcus aureus; details: S. aureus ATCC29213 (MecA negative, wild-type), Mueller-Hinton broth, in duplicate
Method in brief: as §1

S. aureus ATCC700699 = experiment: MIC by microdilution, S. aureus ATCC700699; assay type: cell-based, Staphylococcus aureus; design: unit not given here; details: S. aureus ATCC700699 (MecA positive, glycopeptide resistant), in duplicate
Method in brief: as §1

S. aureus ST20131365 = experiment: MIC by microdilution, S. aureus ST20131365; assay type: cell-based, Staphylococcus aureus; details: S. aureus ST20131365 (MecA positive, glycopeptide resistant), in duplicate
Method in brief: as §1

S. epidermidis ATCC14990 = experiment: MIC by microdilution, S. epidermidis ATCC14990; assay type: cell-based, Staphylococcus epidermidis; details: S. epidermidis ATCC14990 (MecA negative, wild-type), in duplicate
Method in brief: as §1

S. epidermidis ATCC35984 = experiment: MIC by microdilution, S. epidermidis ATCC35984; assay type: cell-based, Staphylococcus epidermidis; details: S. epidermidis ATCC35984 (MecA positive), in duplicate
Method in brief: as §1

E. faecalis JH2-2 = experiment: MIC by microdilution, E. faecalis JH2-2; assay type: cell-based, Enterococcus faecalis; design: unit not given here; details: E. faecalis JH2-2 (wild-type), in duplicate
Method in brief: as §1

E. faecalis UCN41 = experiment: MIC by microdilution, E. faecalis UCN41; assay type: cell-based, Enterococcus faecalis; design: unit not given here; details: E. faecalis UCN41 (VanA positive, glycopeptide resistant), in duplicate
Method in brief: as §1

E. faecalis V583 = experiment: MIC by microdilution, E. faecalis V583; assay type: cell-based, Enterococcus faecalis; details: E. faecalis V583 (VanB positive, glycopeptide resistant), in duplicate
Method in brief: as §1

E. faecium ATCC19434T = experiment: MIC by microdilution, E. faecium ATCC19434T; assay type: cell-based, Enterococcus faecium; design: unit not given here; details: E. faecium ATCC19434T (wild-type), in duplicate
Method in brief: as §1

E. faecium BM4147 = experiment: MIC by microdilution, E. faecium BM4147; assay type: cell-based, Enterococcus faecium; design: unit not given here; details: E. faecium BM4147 (VanA positive, glycopeptide resistant), in duplicate
Method in brief: as §1

E. faecium AUS0004 = experiment: MIC by microdilution, E. faecium AUS0004; assay type: cell-based, Enterococcus faecium; details: E. faecium AUS0004 (VanB positive, glycopeptide resistant), in duplicate
Method in brief: as §1

E. coli ATCC25922 = experiment: MIC by microdilution, E. coli ATCC25922; assay type: cell-based, Escherichia coli; details: E. coli ATCC25922 (wild-type), in duplicate
Method in brief: as §1

[1] = test system: panel of Gram-positive and Gram-negative strains; experiment: Antibacterial profile on the selected panel of strains; assay type: cell-based; details: for antimicrobial / antibacterial activity (in words): summary of Tables 1-12
Method in brief: as §1

human hepatocyte = experiment: Human hepatocyte cytotoxicity profile; assay type: cell-based; details: human hepatocytes
Experimental: FIG. 1 is a diagram representing the TMB3 human hepatocyte cytotoxicity between 7 to 25 μM (FIG. 1 A) and the ampicillin human hepatocyte cytotoxicity between 7 to 25 μM (control) (FIG. 1B. In the diagram, the abscissa represents the concentration in Log per μM and the ordinate the viability of the cells in percentage compared to the human hepatocyte culture without ampicillin trihydrate or TMB3.
The human hepatocyte cytotoxicity profile has been evaluated between 7 and 25 μM for TMB derivatives as a toxicity appeared from 25 μM for the initial hit TMB3 during a preliminary assessment.

[2] = test system: S. epidermidis ST20140436; experiment: MIC by microdilution, S. epidermidis ST20140436; assay type: cell-based, Staphylococcus epidermidis; details: S. epidermidis ST20140436 (MecA positive, glycopeptide resistant), in duplicate
Method in brief: as §1

[3] = test system: S. epidermidis ST20150446; experiment: MIC by microdilution, S. epidermidis ST20150446; assay type: cell-based, Staphylococcus epidermidis; details: S. epidermidis ST20150446 (MecA positive, glycopeptide resistant), in duplicate
Method in brief: as §1

[4] = test system: Clostridium difficile ATCC700057; experiment: MIC by microdilution, Clostridium difficile; assay type: cell-based; details: strain ATCC70057 [sic] (Tables 1-2) / ATCC700057 (Tables 3-10), in duplicate

Row | SMILES | Minimal Inhibitory Concentration (MIC) (S. aureus ATCC25923) | Minimal Inhibitory Concentration (MIC) (S. aureus ATCC29213) | Minimal Inhibitory Concentration (MIC) (S. aureus ATCC700699) | Minimal Inhibitory Concentration (MIC) (S. aureus ST20131365) | Minimal Inhibitory Concentration (MIC) (S. epidermidis ATCC14990) | Minimal Inhibitory Concentration (MIC) (S. epidermidis ATCC35984) | Minimal Inhibitory Concentration (MIC) (E. faecalis JH2-2) | Minimal Inhibitory Concentration (MIC) (E. faecalis UCN41) | Minimal Inhibitory Concentration (MIC) (E. faecalis V583) | Minimal Inhibitory Concentration (MIC) (E. faecium ATCC19434T) | Minimal Inhibitory Concentration (MIC) (E. faecium BM4147) | Minimal Inhibitory Concentration (MIC) (E. faecium AUS0004) | Minimal Inhibitory Concentration (MIC) (E. coli ATCC25922) | MICs measured, as range of concentrations ([1]; depending on the bacteria strains) [µM] | antimicrobial / antibacterial activity (in words) [1] | concentration at which cytotoxicity appears (human hepatocyte; evaluated between 7 and 25 μM) [µM] | concentration from which toxicity appeared (human hepatocyte; preliminary assessment) [µM] | Minimal Inhibitory Concentration (MIC) [2] | Minimal Inhibitory Concentration (MIC) [3] | Minimal Inhibitory Concentration (MIC) [4]
1 | CC[P+](CC)(CC)[Au-][c]1nn[nH]c1COC(=O)NC(C(=O)NC1C(=O)N2C1SC(C)(C)C2C(=O)O)c1ccccc1 (stereo not drawn) [TMB3] | 0.125 and 0.25 | 0.125 and 0.25 | 0.125 and 0.25 | 0.125 and 0.25 | ≤0.06 | ≤0.06 | 0.5 and 1 | 1 and 0.5 | 1 | 1 and 0.5 | 2 and 1 | 1 | >8 | 0.08 to 0.63 | have antimicrobial activity | 20 | 25 | – | – | –
2 | CC[P+](CC)(CC)[Au-][c]1nn[nH]c1COC(=O)N[C@H](Cc1ccccc1)C(=O)O [TMB27] | 0.25 | 0.25 and 0.5 | 0.25 | 0.5 | ≤0.06 | ≤0.06 | 0.5 | 0.5 and 1 | 1 | 1 | 1 | 2 | >8 | – | have antimicrobial activity | – | – | 0.125 | 0.125 | 0.125
3 | CC1(C)S[C@@H]2[C@H](NC(=O)[C@H](NC(=O)CCc3cn(Cc4ccccc4)nn3)c3ccccc3)C(=O)N2[C@H]1C(=O)O [TMB9] | 1 | 1 | >8 | >8 | 1 | >8 | 2 | 8 | 4 | 8 | >8 | >8 | >8 | – | do not show an antibacterial activity | – | – | 8 | 8/>8 | 2-4
4 | CC[P+](CC)(CC)[Au-][c]1nn[nH]c1COC(=O)NC(C(=O)O)c1ccccc1 (stereo not drawn) [TMB1] | 0.125 | 0.125 | 0.125 and 0.25 | 0.125 | ≤0.06 | ≤0.06 | 0.25 and 0.5 | 0.5 | 0.5 and 1 | 0.5 | 1 | 0.5 | >8 | – | have antimicrobial activity | – | – | ≤0.06 | ≤0.06 | ≤0.06
5 | CC1(C)S[C@@H]2[C@H](NC(=O)[C@H](NC(=O)CCc3cnnn3Cc3ccccc3)c3ccccc3)C(=O)N2[C@H]1C(=O)O [TMB6] | 0.5 | 0.5 and 1 | >8 | >8 | 0.5 | >8 | 2 and 4 | 8 | 4 | 8 | >8 | >8 | >8 | – | do not show an antibacterial activity | – | – | 4 | 4 and 8 | 2-4
6 | CC[P+](CC)(CC)[Au-][c]1nn[nH]c1COC(=O)N1CCC[C@@H]1C(=O)O [TMB28] | 0.125 | 0.25 | 0.125 | 0.25 and 0.5 | ≤0.06 | ≤0.06 | 0.25 | 0.25 | 0.25 | 0.25 | 0.5 | 0.5 | >8 | – | have antimicrobial activity | – | – | 0.125 | 0.125 | 0.125 and 0.25

Source: patent US20210284668A1, “GOLD (I)-PHOSPHINE 1,2,3-TRIAZOLE DERIVATIVES WITH ANTIBIOTIC PROPERTIES” (Centre National de la Recherche Scientifique, priority 2018, published 2021)
